Laboratory results as given in a compilation of properties of binary mixtures (doi:10.1016/j.tca.2013.02.002).

Assay: xn = mol fraction of the nth substance listed
Conditions: 101 kPa

CS(C)=O + CC[NH+](CC)CC.O=S(=O)([O-])O
x1 = 1
Conditions	speed of sound [m/s]	viscosity [mPa·s]
298.15 K	1496	1.99
303.15 K	1472	1.8
308.15 K	1460	1.65

CC[NH+](CC)CC.O=S(=O)([O-])O + CS(C)=O
Conditions	speed of sound, 298.15 K [m/s]	speed of sound, 303.15 K [m/s]	speed of sound, 308.15 K [m/s]	viscosity, 298.15 K [mPa·s]	viscosity, 303.15 K [mPa·s]	viscosity, 308.15 K [mPa·s]
x1 = 0.011	–	–	1468	–	–	2.8
x2 = 0	1874	1871	1866	235	153	138
x2 = 0.0244	–	1867	1863	–	148	134
x2 = 0.0557	1861	1859	1857	219	142	129
x2 = 0.108	1852	1850	1850	204	132	120
x2 = 0.1556	1838	1836	1830	190	123	112
x2 = 0.199	–	1820	1822	–	115	105
x2 = 0.2473	1812	1808	–	165	106	–
x2 = 0.3279	1786	1778	1778	144	92	85.4
x2 = 0.4004	1758	1748	–	125	79.3	–
x2 = 0.4964	1720	1708	1706	101	63.8	60.6
x2 = 0.5798	1684	1670	1666	81.1	51.1	49.2
x2 = 0.653	1652	–	1632	64.6	–	39.59
x2 = 0.7376	1614	1596	1590	46.7	29.42	29.13
x2 = 0.7812	1594	1576	1568	38.2	24.22	23.96
x2 = 0.8269	1574	1554	1546	29.63	19.13	18.72
x2 = 0.8772	1550	1530	1520	20.8	13.67	13.35
x2 = 0.9156	1534	1514	1502	14.31	9.78	9.41
x2 = 0.9539	–	1495	1484	–	6.27	5.84
